{"source": "patent US20220305025A1", "about": "“PHOSPHATIDYLSERINE BINDING MOLECULES BLOCK IMMUNE SUPPRESSION OF TUMOR ASSOCIATED EXOSOMES” (priority 2019, published 2022)", "key": {"[1]": {"tested_on": "apoptotic cells (Jurkat cells)", "details": "Jurkat cells treated with 10 μM Etoposide for 20 h; equimolar or titrating amounts", "method": "Jurkat cells were treated with 10 μM Etoposide for 20 h to induce apoptosis. The cells were then stained with PSVue with equimolar or titrating molar amounts of ExoBlock. Sytox Red was used to eliminate dead cells from the analysis. The experiment was done in triplicate wells."}, "[2]": {"test": "Systemic organ toxicity study in mice", "details": "dose 64 mg/kg", "from_the_text": "(§1) Mice were euthanized 14 days after treatment with the drugs."}, "[3]": {"tested_on": "tumor associated exosomes / T cells", "test": "Reversal of exosome-mediated arrest of T cell activation (CD3/CD28-activated PBL with exosomes)", "method": "PBL were either unactivated (Unt) or activated for 2 h (hours) with immobilized antibodies to CD3 and CD28 with exosomes (Exo), exosomes with Zn-T-DPA and Exoblock (Exo+Zn-T-DPA and Exo+ExoBlock) or without (No Exo) exosomes. NFκB expression was detected using confocal microscopy.\nT cells from normal donor peripheral blood leukocytes (NDPBL) were activated for 2 h with immobilized antibodies to CD3 and CD28 in the presence or absence of exosomes and 10 μM ExoBlock. The percentage of activation was determined by monitoring the upregulation of CD69. Percentage of inhibition and reversal were calculated."}, "[4]": {"details": "mouse, in vivo, 64 mg/kg", "from_the_text": "as §1"}, "DM6-Mut cells": {"tested_on": "DM6-Mut cells", "test": "Direct effect on tumor target cells in vitro", "assay_type": "cell-based, human", "details": "at the doses used"}, "DM6-Mut tumor xenografts": {"tested_on": "DM6-Mut tumor xenografts", "details": "for tumor escape / tumor growth: NSG mice bearing DM6-Mut xenografts treated with TKT cells, ExoBlock 64 mg/kg i.p., nivolumab 10 mg/kg", "description": "(A) Experimental scheme and timeline (B-C) Tumor burdens on respective days in the X-mouse model in anti-PD-1 experiment (B) or the IL-12 experiment (C).\nThe X mouse model was established to allow for the rapid generation of human tumors and an in vivo method of evaluation of the anti-tumor responses of patient-derived T cells to patient tumor-specific peptides expressed by the established tumors.\nThere are 7 different T cells derived for 3 different patients available for our studies (Table 1). […] The melanoma tumor target cells (DM6) are either transduced with a tandem mini-gene expressing GFP or with luciferase and each are genetically modified to express either the mutated peptide (DM6-Mut), tumor target or the wild type peptide (DM6-WT) control target. Tumor growth in the X mouse model is monitored either by post-mortem quantification of GFP fluorescence in the omentum or by quantification of luciferase-dependent bioluminescence of the mice by live imaging.\nThe X-mouse model was used to test the efficacy of ExoBlock. ExoBlock was injected i.p. into NSG mice bearing DM6-Mut tumor xenografts and treated with TKT cells."}}, "note": "Entries after “also recorded” stand apart in the source; their conditions may differ. Where two headings read alike, the source gives them in different places."}
{"substance": "(ZnDPA)6-DP-15K [ExoBlock]", "values": [{"measurement": "competitive inhibition of PSVue 499 binding", "setting": "[1]", "result": "competitively inhibits binding of PSVue 499 to apoptotic cells in a dose-dependent manner"}, {"measurement": "avidity of PS binding", "setting": "PS binding avidity", "result": "bind PS with a high avidity; also recorded: greater avidity to PS as compared to Zn-T-DPA"}, {"measurement": "systemic organ toxicity (NOAEL)", "setting": "[2]", "result": "NOAEL was observed"}, {"measurement": "batch consistency of reversal of immunosuppressive effect of exosomes", "setting": "[3]; 10 μM ExoBlock, CD69 upregulation, NDPBL T cells", "result": "consistent in their ability to reverse immunosuppressive effect of exosomes"}, {"measurement": "blocking exosomal immune suppression in vitro", "setting": "[3]; PBL activated 2 h with immobilized antibodies to CD3 and CD28 with exosomes", "result": "more effective than both anti-PS antibody and annexin V; also recorded: inhibits exosome-mediated arrest of T cell activation"}, {"measurement": "reversal of the exosome-mediated arrest of T cell function", "setting": "[3]; comparative studies, FIG. 2A-C", "result": "75-96%"}, {"measurement": "histopathology of organs", "setting": "[4]", "result": "No pathology was observed"}, {"measurement": "direct killing / suppression of tumor target cells", "setting": "DM6-Mut cells", "result": "does not directly kill the tumor target cells; also recorded: no direct suppressive effect"}, {"measurement": "tumor escape / tumor growth", "setting": "DM6-Mut tumor xenografts", "result": "significantly delayed tumor escape; also recorded: suppresses tumor growth and has comparable efficacy to anti-PD1 treatment"}, {"measurement": "change in tumor burden", "setting": "DM6-Mut tumor xenografts; day 25, 64 mg/kg i.p.", "result": "two-fold change in tumor burden"}, {"measurement": "interference with anti-tumor responses of tumor-specific T cells", "setting": "DM6-Mut tumor xenografts; mouse model", "result": "does not interfere with the anti-tumor responses of the tumor-specific T cells"}, {"measurement": "toxicities in pre-clinical efficacy studies", "setting": "DM6-Mut tumor xenografts; mouse model", "result": "no detectable toxicities"}]}
{"substance": "nivolumab [reference compound]", "values": [{"measurement": "tumor escape / tumor growth", "setting": "DM6-Mut tumor xenografts", "result": "enhanced the tumor suppression and delayed, but did not prevent tumor recurrence"}, {"measurement": "tumor escape / tumor growth", "setting": "DM6-Mut tumor xenografts; listed as anti-PD-1", "result": "delay tumor escape"}]}
